Results on one compound are retold here after paper PMC10294662, “Small Molecule Attenuates Bacterial Virulence by Targeting Conserved Response Regulator” (mBio, 2023).

In the assay the target is VicR (Streptococcus mutans, UniProt I6L8Z5). In words: bio-layer interferometry, biotinylated 2B5 on streptavidin sensors; pulldown of recombinant VicR and VicR-N. The assay is classed as binding. Also noted: gene covR; recombinant VicR; VicR-N (1 to 125 amino acid residues) also captured, VicR-C (126 to 235) not captured. (In general: Biolayer interferometry detects binding as a change in optical thickness at a sensor tip.)
VicR, sequence (I6L8Z5 entry or part of it): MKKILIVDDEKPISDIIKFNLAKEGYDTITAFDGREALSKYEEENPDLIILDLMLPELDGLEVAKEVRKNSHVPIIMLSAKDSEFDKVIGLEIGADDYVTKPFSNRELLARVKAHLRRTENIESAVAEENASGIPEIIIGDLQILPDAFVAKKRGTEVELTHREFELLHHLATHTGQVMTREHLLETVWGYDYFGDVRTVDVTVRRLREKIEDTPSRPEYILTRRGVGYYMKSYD

With `CCCCCCCCCCCCCCCCN(CCCCCCc1cn(CCNC(=O)CCCC[C@@H]2SC[C@@H]3NC(=O)N[C@@H]32)nn1)C(=O)CCCc1c[nH]c(N)n1` [Bio2B5, biotinylated 2B5], the Kd – broadly, the constant that tells how readily two partners part at equilibrium – was 38 ± 6.3 µM.
